The assay deals with T1, human MPO (Homo sapiens, UniProt P05164).
T1 sequence (P05164 49-745): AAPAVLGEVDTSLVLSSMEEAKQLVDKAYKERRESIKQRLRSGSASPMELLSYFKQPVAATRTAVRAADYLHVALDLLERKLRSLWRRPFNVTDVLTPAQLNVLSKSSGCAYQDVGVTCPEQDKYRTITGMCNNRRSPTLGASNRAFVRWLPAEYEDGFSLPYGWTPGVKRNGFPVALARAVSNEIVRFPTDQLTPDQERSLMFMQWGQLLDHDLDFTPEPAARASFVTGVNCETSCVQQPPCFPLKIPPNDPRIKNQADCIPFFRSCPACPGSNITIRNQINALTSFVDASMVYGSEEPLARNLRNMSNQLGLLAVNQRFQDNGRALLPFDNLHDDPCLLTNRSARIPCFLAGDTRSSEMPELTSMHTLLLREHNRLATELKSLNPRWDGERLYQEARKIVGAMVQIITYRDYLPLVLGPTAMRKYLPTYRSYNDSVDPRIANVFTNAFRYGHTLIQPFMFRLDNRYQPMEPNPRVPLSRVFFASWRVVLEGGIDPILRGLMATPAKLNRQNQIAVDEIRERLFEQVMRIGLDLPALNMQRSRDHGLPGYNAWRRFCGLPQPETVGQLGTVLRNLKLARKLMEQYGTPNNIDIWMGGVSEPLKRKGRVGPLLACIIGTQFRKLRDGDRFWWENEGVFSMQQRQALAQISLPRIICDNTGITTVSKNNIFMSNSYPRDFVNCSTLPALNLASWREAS
Nature of the assay: MPO inhibition screen (TMB oxidation, absorbance). Format: biochemical. The note with it: in the presence of tyrosine (final 8 μM); human MPO 2.5 nM; H2O2 100 μM. As to the method:
Methods for the determination of MPO inhibitory activity are disclosed in patent application WO 02/090575. The pharmacological activity of compounds according to the invention was tested in the following screen in which the compounds were either tested alone or in the presence of added tyrosine:
Assay buffer: 20 mM sodium/potassium phosphate buffer pH 6.5 containing 10 mM taurine and 100 mM NaCl.
Developing reagent: 2 mM 3,3′,5,5′-tetramethylbenzidine (TMB), 200 μM KI, 200 mM acetate buffer pH 5.4 with 20% DMF.
To 10 μl of diluted compounds in assay buffer, 40 μl of human MPO (final concentration 2.5 nM), with or without 20 μM tyrosine (final concentration, if present, 8 μM), was added and the mixture was incubated for 10 minutes at ambient temperature. Then 50 μl of H2O2 (final concentration 100 μM), or assay buffer alone as a control, were added. After incubation for 10 minutes at ambient temperature, the reaction was stopped by adding 10 μl 0.2 mg/ml of catalase (final concentration 18 μg/ml). The reaction mixture was left for an additional 5 minutes before 100 μl of TMB developing reagent was added. The amount of oxidised 3,3′,5,5′-tetramethylbenzidine formed was then measured after about 5 minutes using absorbance spectroscopy at about […]. IC50 values were then determined using standard procedures.

Structures are written as SMILES.

The IC50 is the point on the concentration scale where inhibition reaches its midpoint. For the compound `O[C@@H]1CCCC[C@H]1n1c(COc2ccccc2Cl)n[nH]c1=S` (relative stereo) [Example 2, 5-(2-Chloro-phenoxymethyl)-4-(trans-2-hydroxycyclohexyl)-2,4-dihydro-[1,2,4]triazole-3-thione], the IC50 was 3.59 µM.
As to `S=c1[nH]nc(Cc2ccccn2)n1C1CC2C=CC1C2` (stereo not drawn) [Example 4, 4-(Bicyclo[2.2.1]hept-5-en-2-yl)-5-pyridin-2-ylmethyl-2,4-dihydro-[1,2,4]triazole-3-thione], the 50% inhibitory concentration (IC50) amounted to 6.73 µM.
For the compound `S=c1[nH]nc(Cc2ccccn2)n1C1CCN(Cc2ccccc2)C1` (stereo not drawn) [Example 5, 4-(1-Benzyl-pyrrolidin-3-yl)-5-pyridin-2-ylmethyl-2,4-dihydro-[1,2,4]triazole-3-thione], the half-maximal inhibitory concentration (IC50) is 7.2 µM.

The values above are taken from patent US20080096929A1, “Novel Use” (ASTRAZENECA AB, priority 2004, published 2008).
